Some test systems named below: HOP-62 NSCLC; HL-60(TB) leukemia; HS 578T breast; LOX IMVI melanoma; HOP-92 NSCLC; M14 melanoma; OVCAR-3 ovarian; EKVX NSCLC; SF-268 CNS; TK-10 renal; NCI-H522 lung; OVCAR-8 ovarian; UACC-62 melanoma; PC-3 prostate; MDA-MB-435; SNB-19 CNS; SF-539 CNS; ACHN renal.
What all share (assay): inhibition of tumour cell growth, NCI panel, 48 h

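All cell lines were grown in 96-well plates and treated with compound for 48 hours. Definition used: TGI = concentration required for complete inhibition of growth.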

As for `NS(=O)(=O)c1ccc(NC(=S)NC(=O)Nc2ccc(Cl)c(Cl)c2)cc1`, the TGI in the experiment on HOP-62 NSCLC came out at 36.8 µM; with HL-60(TB) leukemia it was 33.5 µM; with HS 578T breast, 59.3 µM; in the experiment with LOX IMVI melanoma it was 19.1 µM; in the experiment on HOP-92 NSCLC it was 48.6 µM; in the experiment with M14 melanoma, 20.9 µM. The TGI worked out at 42 µM with OVCAR-3 ovarian; 51 µM in the experiment with EKVX NSCLC; 32.3 µM with SF-268 CNS; 81.5 µM with TK-10 renal; 37.3 µM in the experiment with NCI-H522 lung; 41.2 µM in the experiment on OVCAR-8 ovarian. For the same compound, the TGI in the experiment with UACC-62 melanoma turned out to be 28.7 µM; with PC-3 prostate, 30 µM; in the experiment on MDA-MB-435, 35.7 µM; in the experiment with SNB-19 CNS, 24.5 µM; in the experiment with SF-539 CNS it was 39.7 µM; in the experiment with ACHN renal, 32.2 µM.

In the case of `CC(C#N)(c1ccccc1)N(CCc1ccccc1)C(=O)Oc1ccccc1` (centres undefined), the TGI with HOP-62 NSCLC is more than 100 µM; in the experiment on HL-60(TB) leukemia, more than 100 µM; with HS 578T breast, more than 100 µM; in the experiment on LOX IMVI melanoma, more than 100 µM; in the experiment with HOP-92 NSCLC it was 65 µM; in the experiment on M14 melanoma it was more than 100 µM. The TGI in the experiment on OVCAR-3 ovarian, in the experiment with EKVX NSCLC, with SF-268 CNS, with TK-10 renal, in the experiment on NCI-H522 lung and in the experiment with OVCAR-8 ovarian was more than 100 µM throughout. Further, the TGI with UACC-62 melanoma, in the experiment on PC-3 prostate, in the experiment on MDA-MB-435, in the experiment on SNB-19 CNS, in the experiment on SF-539 CNS and in the experiment on ACHN renal was more than 100 µM throughout.

For the compound `CC[C@@H]1/C=C/C=C/C[C@H](C)[C@@H](O)[C@@H](C)C(=O)[C@H](C)[C@@H](O)[C@H](C)C(=O)[C@H](C)[C@@H](O)[C@H](C)/C=C/C(=O)O[C@H]2[C@@H](C)[C@@H](CC1)O[C@@]1(CC[C@@H](C)[C@@H](CC(C)O)O1)[C@@H]2C` (some centres undefined), the TGI is more than 25 µM in the experiment on HOP-62 NSCLC; 7.27 µM with HL-60(TB) leukemia; more than 23.5 µM in the experiment on HS 578T breast; more than 25 µM in the experiment with LOX IMVI melanoma; more than 20 µM in the experiment on HOP-92 NSCLC; more than 14.7 µM in the experiment with M14 melanoma. Besides, the TGI is 17.7 µM in the experiment with OVCAR-3 ovarian; 7.44 µM with EKVX NSCLC; more than 25 µM in the experiment on SF-268 CNS; more than 23.6 µM in the experiment with TK-10 renal; 11.4 µM in the experiment on NCI-H522 lung; more than 25 µM with OVCAR-8 ovarian. Besides, the TGI is 14.5 µM in the experiment with UACC-62 melanoma; 12.3 µM with PC-3 prostate; more than 18.3 µM in the experiment on MDA-MB-435; more than 25 µM in the experiment on SNB-19 CNS; 24.6 µM in the experiment on SF-539 CNS; 16.7 µM in the experiment on ACHN renal.

Turning to `O=C1c2cc(Br)ccc2-c2ccc3c4ccc5c6c(ccc(c7ccc1c2c73)c64)C(=O)c1cc(Br)ccc1-5`, the TGI with HOP-62 NSCLC, in the experiment with HL-60(TB) leukemia, in the experiment with HS 578T breast, in the experiment with LOX IMVI melanoma, with HOP-92 NSCLC and in the experiment with M14 melanoma was more than 100 µM throughout. The TGI with OVCAR-3 ovarian, with EKVX NSCLC, in the experiment on SF-268 CNS, in the experiment on TK-10 renal, in the experiment with NCI-H522 lung and in the experiment on OVCAR-8 ovarian was more than 100 µM throughout. For the same compound, the TGI in the experiment with UACC-62 melanoma, in the experiment with PC-3 prostate, in the experiment with MDA-MB-435, with SNB-19 CNS, in the experiment on SF-539 CNS and with ACHN renal was more than 100 µM each time.

`O=C1CSCC(=O)Nc2ccccc2N1`: the TGI in the experiment with HOP-62 NSCLC, in the experiment on HL-60(TB) leukemia, in the experiment with HS 578T breast, with LOX IMVI melanoma, in the experiment on HOP-92 NSCLC and in the experiment on M14 melanoma was more than 100 µM in each case. Also, the TGI in the experiment on OVCAR-3 ovarian, with EKVX NSCLC, in the experiment with SF-268 CNS, in the experiment on TK-10 renal, in the experiment with NCI-H522 lung and in the experiment with OVCAR-8 ovarian was more than 100 µM each time. Further, the TGI with UACC-62 melanoma, with PC-3 prostate, with MDA-MB-435, in the experiment with SNB-19 CNS, with SF-539 CNS and in the experiment with ACHN renal was more than 100 µM throughout.

For the compound `O=c1[nH]c(=S)[nH]cc1CN1CCOCC1`, the TGI in the experiment on HOP-62 NSCLC, with HL-60(TB) leukemia, with HS 578T breast, with LOX IMVI melanoma, in the experiment with HOP-92 NSCLC and with M14 melanoma was more than 100 µM in each case. Besides, the TGI in the experiment on OVCAR-3 ovarian, in the experiment on EKVX NSCLC, with SF-268 CNS, in the experiment on TK-10 renal, with NCI-H522 lung and in the experiment with OVCAR-8 ovarian was more than 100 µM in each case. Further, the TGI in the experiment with UACC-62 melanoma, in the experiment on PC-3 prostate, in the experiment with MDA-MB-435, in the experiment with SNB-19 CNS, in the experiment on SF-539 CNS and in the experiment on ACHN renal was more than 100 µM each time.

For `CC(CN1NC12CCCC2)N1NC12CCCC2` (centres undefined), the TGI with HOP-62 NSCLC, with HL-60(TB) leukemia, with HS 578T breast, in the experiment with LOX IMVI melanoma, in the experiment with HOP-92 NSCLC and in the experiment with M14 melanoma was more than 100 µM in each case. The TGI in the experiment with OVCAR-3 ovarian, in the experiment on EKVX NSCLC, with SF-268 CNS, in the experiment with TK-10 renal, in the experiment with NCI-H522 lung and in the experiment with OVCAR-8 ovarian was more than 100 µM in each case. For the same compound, the TGI in the experiment with UACC-62 melanoma, with PC-3 prostate, in the experiment on MDA-MB-435, with SNB-19 CNS, in the experiment with SF-539 CNS and with ACHN renal was more than 100 µM each time.

For `C=C1CC[C@](C)(O)[C@@]2(C)CC[C@H]3C(=C(C)C)C(=O)C[C@]3(C)C[C@H]12`, the TGI is more than 50 µM in the experiment with HOP-62 NSCLC; 18.9 µM in the experiment with HL-60(TB) leukemia; more than 50 µM in the experiment with HS 578T breast; 28.4 µM in the experiment on LOX IMVI melanoma; more than 50 µM with HOP-92 NSCLC; more than 50 µM in the experiment with M14 melanoma. The TGI in the experiment with OVCAR-3 ovarian, in the experiment on EKVX NSCLC, in the experiment on SF-268 CNS, in the experiment on TK-10 renal, in the experiment on NCI-H522 lung and in the experiment with OVCAR-8 ovarian was more than 50 µM each time. The TGI in the experiment on UACC-62 melanoma, in the experiment on PC-3 prostate, in the experiment with MDA-MB-435, with SNB-19 CNS, with SF-539 CNS and in the experiment on ACHN renal was more than 50 µM throughout.

(Values after PubChem BioAssay (NCI).)
